# In patent US11203773B2, “Designer ribosomes and methods of use thereof for incorporating non-standard amino acids into polypeptides” (Yale University, priority 2016, dated 2021):
# How the values were obtained:
# E. coli GluRS [1] = biological target: T1, E. coli GluRS (Escherichia coli, UniProt P04805); test: Deacylation assay of [32P]-aminoacyl-tRNA; type: biochemical; parameters: made in house; host or cells: E. coli BL21(DE3)
# Experimental: (§3) Deacylation assays. Large scale (200 μL) aminoacylation reactions were initiated using the conditions described above (iv). The reactions were allowed to proceed for 1 h at 37° C., after which each reaction mixture was phenol/chloroform extracted. In each case, the aminoacylated tRNA product was ethanol precipitated, and the buffer was exchanged using a micro Bio-Spin 6 column (BioRad) following the procedure specified by the manufacturer and 100 mM HEPES (pH 8.0) containing 100 mM KCl. The precise extent of aminoacylation was calculated using the procedure described above; the 2 μM concentration corresponds to total aminoacylated tRNA. Assays were performed at 25° C. in a 50 μL reaction with 2 μM [^32P]-aminoacyl-tRNA in 100 mM HEPES (pH 7.0) containing 100 mM KCl and 15 mM MgCl2.
# E. coli GluRS [2] = biological target: T1, E. coli GluRS; test: Aminoacylation of 32P-tRNA with α- and β3-amino acids; type: biochemical; parameters: made in house; host or cells: E. coli BL21(DE3)
# E. coli GluRS [3] = biological target: T1, E. coli GluRS; test: Adenylation of α- and β3-amino acids, pyrophosphate exchange assay
# Experimental: (§4) Adenylation of α- and β-Amino Acids Catalyzed by E. coli PheRS, GlyRS, MetRS, and GluRS. […] Briefly, assay mixtures (50 μL) assembled at 25° C. contained the requisite α- or β^3-amino acid substrate (between 5 μM and 5 mM) in 100 mM HEPES (pH 7.0) containing 100 mM KCl, 15 mM MgCl2, 2 mM ATP, 0.5 mM NaPPi, and 50 μCi [^32P]-NaPPi). Reactions were initiated upon addition of enzyme (10 nM MetRS, 10 nM PheRS, or 50 nM GlyRS; 100 nM GluRS for reactions with α-Glu or 1.13 μM GluRS for reactions with β^3-Glu), incubated for various times (10 sec to 10 min), and halted by adding a 5 μL reaction aliquot to 100 μL quenching solution (10% charcoal, 0.5% HCl). 50 μL of 200 mM NaPPi in 1.5 N HCl was then added to each quenched reaction to decrease nonspecific binding of pyrophosphate to the charcoal. Each quenched reaction was then filtered through Whatman filter paper (number 3), previously washed with washing solution (200 mM NaPPi in 1 N HCl) using a 96-well BIO-DOT® apparatus (BioRad). Each well of the apparatus was then washed four times with 200 μL aliquots of washing solution (by pipetting washing solution up and down at least 10 times per wash) to minimize nonspecific binding of pyrophosphate to charcoal. Each experimental well was paired with an analogous control well (no-enzyme control) that lacked enzyme; a single membrane contained time points for both α- and β^3-amino acid substrates and all no-enzyme controls. The membrane was allowed to dry and was protected with a sheet of Microseal B adhesive seals (Biorad) prior to exposure to a BAS Storage Phosphor screen. Screens were imaged on a Typhoon 9500FLA biomolecule imager and the signal intensity of each dot was quantified using ImageJ to determine the relative amount of [^32P]-ATP formed as a function of time (Ctime). Each raw value were corrected by subtracting the intensity of the dot corresponding to the appropriate no-enzyme control (Cblank) and the resulting corrected values of Ccorr (representing the relative amounts of ^32P-ATP formed) were plotted as a function of time to determine values of relative ^32P-ATP formed per minute. Those values were divided by the concentration of enzyme used, and the data was plotted as relative specific activity (^32P-ATP formed min^−1×μM^−1 enzyme) and fitted using Prism by performing nonlinear regression using the least squares method and Equation 1 to obtain RSA (relative specific activity) and KM values (Equation 1 and Table 2).
# (§5) In Equation 1, v is the apparent relative specific activity (relative ^32P-ATP formed per minute) obtained at each substrate concentration divided by the enzyme concentration, RSA is the relative specific activity, S is the concentration of substrate, and KM is the Michaelis-Menten constant.
# E. coli MetRS [4] = biological target: T2, E. coli MetRS (Escherichia coli, UniProt P00959)
# T2 sequence (P00959 whole entry): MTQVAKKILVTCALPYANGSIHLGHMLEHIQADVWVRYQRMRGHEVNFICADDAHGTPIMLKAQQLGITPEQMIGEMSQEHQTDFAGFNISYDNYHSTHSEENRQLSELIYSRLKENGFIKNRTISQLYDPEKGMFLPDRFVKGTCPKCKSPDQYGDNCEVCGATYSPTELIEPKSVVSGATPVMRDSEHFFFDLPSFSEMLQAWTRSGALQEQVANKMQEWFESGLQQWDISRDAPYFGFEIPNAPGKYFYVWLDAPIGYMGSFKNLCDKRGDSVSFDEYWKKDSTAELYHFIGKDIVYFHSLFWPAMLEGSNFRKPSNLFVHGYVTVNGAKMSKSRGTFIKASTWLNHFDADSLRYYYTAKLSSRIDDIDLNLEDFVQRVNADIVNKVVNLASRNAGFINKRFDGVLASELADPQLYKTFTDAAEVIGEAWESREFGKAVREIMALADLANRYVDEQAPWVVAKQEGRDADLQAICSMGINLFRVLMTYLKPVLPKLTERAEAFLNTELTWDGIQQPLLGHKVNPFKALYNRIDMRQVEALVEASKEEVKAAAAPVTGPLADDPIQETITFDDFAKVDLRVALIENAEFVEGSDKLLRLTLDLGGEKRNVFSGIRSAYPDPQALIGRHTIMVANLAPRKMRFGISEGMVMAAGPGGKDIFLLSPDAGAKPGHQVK
# Experimental: Aminoacylation of α- and β^3-amino acids. All tRNAs were prepared for aminoacylation by heating ^32P-tRNA (in 100 mM HEPES (pH 7.0)) to 95° C. for 3 min, and adding sufficient aminoacylation buffer (100 mM HEPES (pH 7.0), 100 mM KCl, 15 mM MgCl2) to ensure [^32P-tRNA]=4 μM. This tRNA mixture was allowed to cool at RT for 30 min. […] Equal volumes of the tRNA and amino acid mix were combined, and enzyme was added to initiate the reaction. The final concentration of tRNA after mixing was 2 μM. Reactions were quenched at various time points by mixing 1 μL of the reaction mixture with 4 μL of P1 (Sigma) or S1 (Invitrogen) nuclease solution (0.5 U/μL final prepared from a 10 U/μL stock solution in 10 mM NaOAc (pH 5.0). PEI cellulose TLC plates were run as previously described (Ledoux, et al., Methods, 44:74 (2008)), exposed to a BAS Storage Phosphor Screen, and imaged using a Typhoon FLA9500 biomolecule imager. The intensity of each band was quantified using ImageJ. The sum of the intensities of the bands corresponding to [^32P]-AMP (IAMP) and aminoacyl-[^32P]-AMP (IAA) was set equal to 2 μM, and the concentration of aminoacylated-tRNA at each time point and each enzyme concentration (μM product formed, x) calculated from the equation x=[(IAA×2 μM)/(IAA+IAMP)]. The increase in aminoacyl-^32P-AMP over time was divided by the amount of enzyme used, plotted as a function of substrate concentration and fitted to a hyperbolic equation to obtain kcat and KM values, using Equation 1 and Prism as described for the adenylation reactions. For all aminoacylation reactions, kcat has units of reciprocal time (min^−1).
# E. coli MetRS [5] = biological target: T2, E. coli MetRS; remark: listed apart in the source
# Experimental: as §3
# E. coli MetRS [6] = biological target: T2, E. coli MetRS; remark: listed apart in the source
# Experimental: as §4, §5
# E. coli PheRS [7] = biological target: T3, E. coli PheRS (Escherichia coli, UniProt P08312); test: Aminoacylation of 32P-tRNA with α- and β3-amino acids; type: biochemical; parameters: made in house; host or cells: E. coli BL21(DE3)
# T3 sequence (P08312 whole entry): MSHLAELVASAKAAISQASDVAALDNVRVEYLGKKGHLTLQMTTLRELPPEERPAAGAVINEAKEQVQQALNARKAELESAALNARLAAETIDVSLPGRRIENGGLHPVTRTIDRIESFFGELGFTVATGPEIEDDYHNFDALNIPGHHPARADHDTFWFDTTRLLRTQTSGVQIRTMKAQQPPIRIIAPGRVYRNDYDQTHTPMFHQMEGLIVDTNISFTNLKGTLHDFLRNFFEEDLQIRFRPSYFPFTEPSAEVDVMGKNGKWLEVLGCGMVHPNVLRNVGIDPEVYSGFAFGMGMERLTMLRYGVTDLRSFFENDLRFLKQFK
# T3 sequence (P07395 whole entry partner): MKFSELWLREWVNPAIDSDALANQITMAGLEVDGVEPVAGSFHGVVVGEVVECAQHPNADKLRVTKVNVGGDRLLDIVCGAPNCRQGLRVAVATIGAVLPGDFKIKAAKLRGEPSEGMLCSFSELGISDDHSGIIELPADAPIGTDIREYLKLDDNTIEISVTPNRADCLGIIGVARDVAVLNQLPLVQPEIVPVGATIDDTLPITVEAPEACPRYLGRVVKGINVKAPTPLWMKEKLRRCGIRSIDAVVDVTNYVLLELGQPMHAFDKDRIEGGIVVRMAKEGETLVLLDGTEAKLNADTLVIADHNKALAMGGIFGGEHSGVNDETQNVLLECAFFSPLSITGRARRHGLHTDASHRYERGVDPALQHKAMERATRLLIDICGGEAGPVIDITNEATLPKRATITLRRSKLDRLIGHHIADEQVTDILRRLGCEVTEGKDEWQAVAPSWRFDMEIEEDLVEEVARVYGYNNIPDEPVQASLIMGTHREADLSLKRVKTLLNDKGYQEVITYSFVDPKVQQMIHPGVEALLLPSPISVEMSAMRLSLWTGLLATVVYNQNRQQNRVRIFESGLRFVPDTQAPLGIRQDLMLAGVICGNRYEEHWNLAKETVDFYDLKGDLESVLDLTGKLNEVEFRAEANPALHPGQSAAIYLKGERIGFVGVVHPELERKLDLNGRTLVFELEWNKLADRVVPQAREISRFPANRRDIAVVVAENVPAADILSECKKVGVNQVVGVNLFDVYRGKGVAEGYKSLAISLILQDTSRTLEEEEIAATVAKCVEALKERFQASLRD
# [8] = test system: BL21(DE3) cells expressing 040329 ribosomes along with WT ribosomes; test: Expression of DHFR in 19/20 minimal media supplemented with amino acid (SDS-PAGE); type: cell-based, E. coli; details: 040329 + WT ribosomes, media supplemented with 1 mM of the amino acid
# Source text: (§1) To evaluate the extent of in vivo β^3-amino acid incorporation, BL21 (DE3) cells were co-transformed via electroporation (vide infra) with two plasmids. […] The other plasmid encoded either the WT rrnb sequence (pLK35-rrnb), the 040329 mutant reported by Hecht (pLK35-040329.rrnb), or the P7A7 mutant (pLK35-P7A7.rrnb) identified during the puromycin sensitivity screen described above.
# (§2) ii. β^3-amino acid incorporation. The subsequent protocol for in vivo β^3-amino acid incorporation employed minimal media and was adapted from procedures reported by Tirrell and Cropp (Liu, et al., Bioorg Med Chem Lett, 20:5613 (2010); Mandavi, et al., J Am Chem Soc, 135:2979 (2013)). Briefly, all 5 mL of the co-transformed cells prepared as described above were diluted into 100 mL of LB containing 50 ng/mL of kanamycin and […] of carbenicillin and grown to OD600=1.0, spun down, and then resuspended in 1/10th the original volume of 19/20 minimal media (10.5 g/L M9 salts, 0.1 mM CaCl2, 1 mM MgSO4, 1% glycerol, 100 μM of each amino acid (minus α-Phe), 25 mg/L thiamine, […] carbenicillin, 30 ng/mL kanamycin, 1 mM IPTG) supplemented with 1 mM of α-Phe or a β^3-Phe analog. Cells were grown overnight (18 h) at 37° C. while shaking (200 rpm). The cells were harvested by centrifugation (10 min at 4000×g) and resuspended in lysis buffer (50 mM NaH2PO4, 300 mM NaCl, 10 mM imidazole (pH 8.0)). Lysis was performed by sonication (Branson Sonifier 250) with 5 cycles of 20 s on, 20 s off. Lysed cells were then centrifuged for 20 min at 15000×g. The clarified cell lysate was incubated with Ni-NTA resin (Qiagen) for 1 h while gently rotating at 4° C. The Ni-NTA column was washed with lysis buffer prior to eluting proteins with elution buffer (50 mM NaH2PO4, 300 mM NaCl, 300 mM imidazole (pH 8.0)). Elutions were analyzed with SDS-PAGE to prepare material for in-gel trypsin digestions. Controls included side-by-side growths in (1) unsupplemented 19/20 minimal media, which contains only low levels of α-Phe present (negative control); (2). 19/20 minimal media supplemented with 1 mM α-Phe (positive control) and (3) and 19/20 minimal media supplemented with 1 mM β^3-Gly (negative control; β^3-aa that is not a β^3-Phe analog).
# [9] = test system: BL21(DE3) cells expressing only WT ribosomes; test: as above; type: cell-based, E. coli; details: α-Phe added
# Source text: as §1, §2
# [10] = test system: BL21(DE3) cells expressing P7A7 ribosomes along with WT ribosomes; test: as above; type: cell-based, E. coli; details: media supplemented with 1 mM of the amino acid
# Source text: as §1, §2
# E. coli PheRS [11] = biological target: T3, E. coli PheRS; test: Deacylation assay of [32P]-aminoacyl-tRNA; type: biochemical; parameters: made in house; host or cells: E. coli BL21(DE3)
# Experimental: as §3
# E. coli PheRS [12] = biological target: T3, E. coli PheRS; test: Adenylation of α- and β3-amino acids, pyrophosphate exchange assay
# Experimental: as §4, §5
# E. coli TyrRS [13] = biological target: T4, E. coli TyrRS (Escherichia coli, UniProt P0AGJ9); test: Adenylation of α- and β-Tyr, coupled MESG/PNP pyrophosphate release assay; type: biochemical
# T4 construct: made in house; host or cells: E. coli BL21(DE3)
# T4 sequence (P0AGJ9 1-424): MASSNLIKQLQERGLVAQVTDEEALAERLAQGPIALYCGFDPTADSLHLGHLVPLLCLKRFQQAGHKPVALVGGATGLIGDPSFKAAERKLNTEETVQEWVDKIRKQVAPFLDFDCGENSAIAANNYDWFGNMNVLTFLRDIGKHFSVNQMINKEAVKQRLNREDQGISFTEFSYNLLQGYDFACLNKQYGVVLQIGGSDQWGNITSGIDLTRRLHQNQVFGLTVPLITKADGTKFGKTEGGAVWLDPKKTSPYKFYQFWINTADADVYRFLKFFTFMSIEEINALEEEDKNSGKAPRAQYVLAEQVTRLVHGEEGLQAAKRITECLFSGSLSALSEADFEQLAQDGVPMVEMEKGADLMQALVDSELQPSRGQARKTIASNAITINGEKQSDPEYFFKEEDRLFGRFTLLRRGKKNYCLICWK
# Source text: ii. Adenylation of α- and β-Tyr catalyzed by E. coli TyrRS. These reactions were monitored spectrophotometrically in a coupled assay using inorganic pyrophosphatase, 2-amino-6-mercapto-7-methylpurine ribonucleoside (MESG), and purine nucleoside phosphorylase (PNP) to monitor the rate of pyrophosphate release, according to the manufacturer's instructions (Enzcheck Pyrophosphate assay kit, Thermo Fisher Scientific). The assay measures the increase in absorbance at 360 nm due to MESG phosphorolysis, and two molecules of MESG are consumed per pyrophosphate generated. This direct assay could be employed for TyrRS because the rate of ATP hydrolysis (in the absence of amino acid substrate) was insignificant, which was not the case for the other synthetases which therefore required the more laborious pyrophosphate exchange assay described above. […] For TyrRS, kcat is the turnover number (units of reciprocal time) since the change in absorbance can be directly correlated to concentration of pyrophosphate formed.
# E. coli TyrRS [14] = biological target: T4, E. coli TyrRS; test: Deacylation assay of [32P]-aminoacyl-tRNA; type: biochemical
# Experimental: as §3
# E. coli TyrRS [15] = biological target: T4, E. coli TyrRS; test: Aminoacylation of 32P-tRNA with α- and β3-amino acids; type: biochemical
# T1 sequence (P04805 whole entry): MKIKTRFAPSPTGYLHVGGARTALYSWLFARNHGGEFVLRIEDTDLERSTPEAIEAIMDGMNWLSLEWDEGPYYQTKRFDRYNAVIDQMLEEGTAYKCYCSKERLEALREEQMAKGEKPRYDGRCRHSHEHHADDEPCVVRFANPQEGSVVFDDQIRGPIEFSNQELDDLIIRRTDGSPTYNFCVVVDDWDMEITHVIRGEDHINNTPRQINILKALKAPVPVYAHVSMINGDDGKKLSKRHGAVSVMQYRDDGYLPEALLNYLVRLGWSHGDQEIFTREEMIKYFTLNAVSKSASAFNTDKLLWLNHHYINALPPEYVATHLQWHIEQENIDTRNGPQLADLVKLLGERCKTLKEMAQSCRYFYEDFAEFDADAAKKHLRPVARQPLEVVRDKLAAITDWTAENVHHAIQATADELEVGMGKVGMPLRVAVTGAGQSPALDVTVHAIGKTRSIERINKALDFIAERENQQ
compound,measurement,setting,value
"N[C@@H](CCC(=O)O)C(=O)O [α-Glu, Glutamic Acid]",krev (apparent rate of deacylation),"E. coli GluRS [1]; deacylation of aminoacyl-tRNA, GluRS 5.0 μM, 25° C.",0.32 ± 0.14 min⁻¹
same,Ratio (α/β) of krev,"E. coli GluRS [1]; deacylation, GluRS",0.73 ± 0.42
same,Ratio (α/β) of KM,E. coli GluRS [2],0.94 ± 0.60
same,Ratio (α/β) of kcat,E. coli GluRS [2],61.2 ± 9.1
same,Ratio (α/β) of kcat/KM,E. coli GluRS [2],82.78 ± 68.2
same,Ratio (α-/β-) of KM,E. coli GluRS [3],0.35 ± 0.27
same,Ratio (α-/β-) of RSA,E. coli GluRS [3],31.6 ± 6.4
same,Ratio (α-/β-) of kcat/KM,E. coli GluRS [3],89.0 ± 70^
same,kcat (min^−1) or RSA (^32P-ATP formed min^−1 enzyme μM^−1),"E. coli GluRS [3]; RSA, 25° C., pH 7.0",1349 ± 206 ^32P-ATP formed min^−1 enzyme μM^−1
"CSCC[C@H](N)C(=O)O [α-Met, Methionine]",Ratio (α/β) of KM,E. coli MetRS [4]; aminoacylation,0.40 ± 0.18
same,Ratio (α/β) of kcat,E. coli MetRS [4]; aminoacylation,6.8 ± 1.3
same,Ratio (α/β) of kcat/KM,E. coli MetRS [4]; aminoacylation,17.0 ± 8.5
same,preference (kcat/KM) for α-Met over β^3-Met,E. coli MetRS [4]; complete aminoacylation reaction,19 fold
same,krev (apparent rate of deacylation),"E. coli MetRS [5]; deacylation of aminoacyl-tRNA, MetRS 500 nM, 25° C.",2.1 ± 1.7 min⁻¹
same,Ratio (α/β) of krev,"E. coli MetRS [5]; deacylation, MetRS",0.52 ± 0.49
same,Ratio (α-/β-) of KM,E. coli MetRS [6]; adenylation,0.70 ± 0.5
same,Ratio (α-/β-) of RSA,E. coli MetRS [6]; adenylation,1.4 ± 0.2
same,Ratio (α-/β-) of kcat/KM,E. coli MetRS [6]; adenylation,1.98 ± 1.5
same,preference for α-Met over β^3-Met,E. coli MetRS [6]; adenylation phase,2 fold
same,kcat (min^−1) or RSA (^32P-ATP formed min^−1 enzyme μM^−1),"E. coli MetRS [6]; adenylation, RSA, 25° C., pH 7.0",430 ± 38 ^32P-ATP formed min^−1 enzyme μM^−1
"N[C@@H](Cc1ccccc1)C(=O)O [α-Phe, Phenylalanine]",Ratio (α/β) of KM,E. coli PheRS [7],1.7 ± 0.9
same,Ratio (α/β) of kcat,E. coli PheRS [7],3.7 ± 0.7
same,Ratio (α/β) of kcat/KM,E. coli PheRS [7],2.2 ± 1.3
same,kcat,E. coli PheRS [7]; 2 μM tRNA,0.0143 ± 0.00183 s⁻¹
same,level of DHFR,[8],significant levels
same,"level of DHFR, higher than trace amounts",[9],approximately 8 fold
same,level of DHFR,[10],lower levels
same,krev (apparent rate of deacylation),"E. coli PheRS [11]; deacylation of aminoacyl-tRNA, PheRS 500 nM, 25° C.",0.15 ± 0.008 min⁻¹
same,Ratio (α/β) of krev,"E. coli PheRS [11]; deacylation, PheRS",0.49 ± 0.05
same,Ratio (α-/β-) of KM,E. coli PheRS [12],0.18 ± 0.11
same,Ratio (α-/β-) of RSA,E. coli PheRS [12],1.4 ± 0.3
same,Ratio (α-/β-) of kcat/KM,E. coli PheRS [12],8.06 ± 5.63
same,kcat (min^−1) or RSA (^32P-ATP formed min^−1 enzyme μM^−1),"E. coli PheRS [12]; RSA, 25° C., pH 7.0",59.1 ± 7.1 ^32P-ATP formed min^−1 enzyme μM^−1
"N[C@@H](Cc1ccc(O)cc1)C(=O)O [α-Tyr, Tyrosine]",Ratio (α-/β-) of KM,E. coli TyrRS [13],0.047 ± 0.03
same,Ratio (α-/β-) of kcat,E. coli TyrRS [13],46.2 ± 7.7
same,Ratio (α-/β-) of kcat/KM,E. coli TyrRS [13],972.6 ± 632.0
same,krev (apparent rate of deacylation),"E. coli TyrRS [14]; deacylation of aminoacyl-tRNA, TyrRS 1 μM, 25° C.",1.9 ± 1.3 min⁻¹
same,Ratio (α/β) of krev,"E. coli TyrRS [14]; deacylation, TyrRS",1.01 ± 0.75
same,Ratio (α/β) of kcat,E. coli TyrRS [15],56.3 ± 6.8
same,Ratio (α/β) of kcat/KM,E. coli TyrRS [15],1541.7 ± 724.3
